Laboratory results: patent publication US6602664B2 (priority 1998, dated 2003)
Where “and” joins values, the source holds several entries; their conditions need not be identical. Identical values can stand only once. Like-named read-outs stand apart in the source and are kept apart here.

What was measured:
[1] = system: drug-resistant HIV-1 in PBMC; experiment: microbe, parasite or virus in culture; assay type: cell-based; conditions: for EC50: Human immunodeficiency virus 1, PBMC, PBMC
[2] = system: drug-resistant HIV-1 in MT-2; experiment: microbe, parasite or virus in culture; assay type: cell-based; conditions: MT-2
[3] = system: HIV-1 replication in human PBM cells; experiment: microbe, parasite or virus in culture; assay type: cell-based
Description: Cells and viruses. […] Antimicrobial Agents Chemother 1992;36(11): 2423-2431.
Cell pellets were washed, centrifuged, lysed and the proviral DNA extracted as previously described. Cytotoxicity of the compounds was determined using the Promega Cell Titer 96 dye uptake assay (Madison, Wis.) in 1-2 day PHA-stimulated PBM cells after 5 days in culture. The median effective concentration (EC50) and inhibitory concentration (IC50) were derived from the computer-generated median effect plot of the dose-effect data, as described previously.

[4] = system: recombinant HIV-1 virus isolates; assay type: cell-based
Source text: The aim of the study was to determine the potency of the inhibitory effect of a new generation of NRTIs on Multi Drug Resistant isolates and to compare it with their effect on wild-type HIV-1 isolates. All recombinant viruses were taken from the VIRCO repository of phenotypically and genotypically characterized virus isolates. Hirsch et al. Antiretroviral Drug Resistance Testing in Adults with HIV Infection. JAMA; 1998: 79(24) 1984-1991. See also Pauwels et al. Comprehensive HIV drug Resistance monitoring using rapid, high-throughput phenotypic and genotypic assays with correlative data analysis. Antiviral Therapy, 1998: 3: 35 Abstract 51.
Phenotypic drug susceptibility determination of recombinant virus isolates is described in Hertogs et al. A Rapid Method for Simultaneous Detection of Phentypic Resistance to Inhibitors of Protease and Reverse Transcriptase in Recombinant HIV-1 Isolates from Patients Treated with Antiretroviral Drugs. Antimicrob. Agents Chemother. 1998; 42(2): 269-276. The basic principle of the Antivirogram® technology is the construction of chimeric HIV-1 strains composed of the protease (PR) and reverse transcriptase (RT) gene sequences which are isolated and amplified from patient viral RNA. Amplicons are subsequently transfected into CD4+T cells together with a standard laboratory isogenic (HXB2) HIV-1 DNA construct from which the PR/RT gene sequences were deleted. After homologous recombination, new viruses whose diversity reflects the original population amplified from the plasma are produced at high level from these cells.
The virus infectivity (CCID50) is determined by an end-point dilution method. The titer is calculated from the degree of infection, measured by the intensity of reporter-gene signal as generated by serial dilutions of the virus shock. The chimeric (clinical isolates and wild-type reference) viruses are then analyzed for their phenotypic sensitivity (i.e. susceptibility) to the different PR and RT-inhibitors in an automated reporter gene-based assay using serial dilutions of the compound. The standardisation of the Antivirogram®n assay allows for simultaneous testing of all clinically approved drugs in one 384-well microtiter plate. The experimental drugs are included in separate plates. Each plate contains multiple replicates of mock-infected wells, virus-infection control wells and blank (medium-only) well. All plates are tested in duplicate. 50% Inhibitory concentrations are calculated based on reporter signals obtained through optical reading of 384-well plates containing serial dilutions of compounds, a normalised quantity of virus and by taking into account all relevant control wells. Approval (or not) is done according to critical ranges and settings as described in the corresponding VIRCO Standard Operating Procedure.
A more detailed description of the protocol is as follows. Samples were stored frozen. […] To confirm the genotypic pattern, genotyping (ABI-sequencing) was performed after recombination and culture of the laboratory strains by analysis of cell viability, calculation of results (dose-response curves, IC50 values), and reporting of data.

[5] = system: drug-resistant HIV-1 in MT-4; experiment: microbe, parasite or virus in culture; assay type: cell-based
[6] = system: drug-resistant HIV-1 in HeLa HT4-6C; experiment: microbe, parasite or virus in culture; assay type: cell-based; conditions: Human immunodeficiency virus 1, HeLa
HIV = conditions: U.S. Pat. No. 4,916,122; cited from earlier work
[7] = clinical isolate (pre) prior to long-term ZDV monotherapy, row HIV-1 (A012D), read-out: Untreated EC50
[8] = clinical isolate HIV-1 (A012D:M41L?/D67N/K70R/T215F/K219Q), read-out: Selected Varient EC50
[9] = Human immunodeficiency virus 1, PBMC, 144 h

Question: Which “fold change in EC50” value [1] does the source give for `[N-]=[N+]=N[C@H]1C[C@H](n2ccc(=O)[nH]c2=O)O[C@@H]1CO` [CS-87, 3′-Azido-2′,3′-dideoxyuridine] here?
Answer: < 3 fold

Question: And the EC50 [1, 7]?
Answer: 0.4 µM

Question: What about the EC50 [1, 8] of the same molecule?
Answer: 16.5 µM

Question: What about the EC50 ([1]; molecular clone 1 (T215Y/M41L), read-out: Selected Varient EC50) of the same molecule?
Answer: 2.1 µM

Question: And the EC50 ([1]; molecular clone (M184V/T215Y), read-out: Selected Varient EC50)?
Answer: 1.1 µM

Question: And the EC50 ([1]; molecular clone HIV-1 (D67N/K70R/T215Y/K219Q), read-out: Selected Varient EC50)?
Answer: 0.3 µM

Question: And the EC50 ([1]; molecular clone HIV-1 (K65R), read-out: Selected Varient EC50)?
Answer: 1.1 µM

Question: And the EC50 ([1]; molecular clone HIV-1 (L74V), read-out: Selected Varient EC50)?
Answer: 0.6 µM

Question: And the EC50 ([1]; molecular clone HIV-1 (M184V), read-out: Selected Varient EC50)?
Answer: 0.6 µM

Question: What about the EC50 ([1]; molecular clone HIV-1 (T215Y), read-out: Selected Varient EC50) of the same molecule?
Answer: 0.3 µM

Question: What about the EC50 ([1]; parent strain HIV-1 (xxLAI), row 1 (T215Y/M41L), read-out: Untreated EC50) of the same molecule?
Answer: 1.1 µM

Question: What about the EC50 ([1]; parent strain HIV-1 (xxLAI), row (M184V/T215Y), read-out: Untreated EC50) of the same molecule?
Answer: 1.1 µM

Question: And the EC50 ([1]; parent strain HIV-1 (xxLAI), row HIV-1 (D67N/K70R/T215Y/K219Q), read-out: Untreated EC50)?
Answer: 1.1 µM

Question: What about the EC50 ([1]; parent strain HIV-1 (xxLAI), row HIV-1 (K65R), read-out: Untreated EC50) of the same molecule?
Answer: 1.1 µM

Question: What about the EC50 ([1]; parent strain HIV-1 (xxLAI), row HIV-1 (L74V), read-out: Untreated EC50) of the same molecule?
Answer: 1.1 µM

Question: What about the EC50 ([1]; parent strain HIV-1 (xxLAI), row HIV-1 (M184V), read-out: Untreated EC50) of the same molecule?
Answer: 1.1 µM

Question: And the EC50 ([1]; parent strain HIV-1 (xxLAI), row HIV-1 (T215Y), read-out: Untreated EC50)?
Answer: 1.1 µM

Question: And the EC50 ([2]; Human immunodeficiency virus 1, MT2, molecular clone HIV-1 (D67N/K70R/M184V/T215Y/K219Q), read-out: Selected Varient EC50)?
Answer: 53.4 µM

Question: What about the EC50 ([2]; Human immunodeficiency virus 1, MT2, molecular clone HIV-1 (D67N/K70R/T215Y/K219Q), read-out: Selected Varient EC50) of the same molecule?
Answer: > 90 µM

Question: What about the EC50 ([2]; Human immunodeficiency virus 1, MT2, molecular clone HIV-1 (M41L/D67N/M184V/H208Y/L210W/R211K/L214F/T215Y), read-out: Selected Varient EC50) of the same molecule?
Answer: 50.2 µM

Question: And the EC50 ([2]; Human immunodeficiency virus 1, MT2, molecular clone HlV-1 (M184V), read-out: Selected Varient EC50)?
Answer: 16.8 µM

Question: And the EC50 ([2]; Human immunodeficiency virus 1, MT2, parent strain HIV-1 (xxLAI), row HIV-1 (D67N/K70R/M184V/T215Y/K219Q), read-out: Untreated EC50)?
Answer: 20 µM

Question: What about the EC50 ([2]; Human immunodeficiency virus 1, MT2, parent strain HIV-1 (xxLAI), row HIV-1 (D67N/K70R/T215Y/K219Q), read-out: Untreated EC50) of the same molecule?
Answer: 20 µM

Question: What about the EC50 ([2]; Human immunodeficiency virus 1, MT2, parent strain HIV-1 (xxLAI), row HIV-1 (M41L/D67N/M184V/H208Y/L210W/R211K/L214F/T215Y), read-out: Untreated EC50) of the same molecule?
Answer: 20 µM

Question: What about the EC50 ([2]; Human immunodeficiency virus 1, MT2, parent strain HIV-1 (xxLAI), row HlV-1 (M184V), read-out: Untreated EC50) of the same molecule?
Answer: 20 µM

Question: And the “m ± SE (slope of median effect plot)” value [3]?
Answer: 1.62 ± 0.13 and 1.50 ± 0.33 and 1.01 ± 0.01

Question: What about the inhibition at 10 µM [3, 9] of the same molecule?
Answer: 34.5%

Question: What about the inhibition at 100 µM [3, 9] of the same molecule?
Answer: 32%

Question: And the inhibition at 1000 µM [3, 9]?
Answer: 87.3%

Question: What about the “activity against multiple-drug resistant forms of HIV” value [4] of the same molecule?
Answer: active

Question: And the “susceptibility of multiple dideoxynucleoside resistant viruses” value [4]?
Answer: resistant

Question: And the EC50 ([5]; Human immunodeficiency virus 1, MT4, clinical isolate (pre) prior to long-term ZDV monotherapy, row HIV-1 (A-161), read-out: Untreated EC50)?
Answer: 0.6 µM

Question: What about the EC50 ([5]; Human immunodeficiency virus 1, MT4, clinical isolate (pre) prior to long-term ZDV monotherapy, row HIV-1 (C-246), read-out: Untreated EC50) of the same molecule?
Answer: 0.6 µM

Question: And the EC50 ([5]; Human immunodeficiency virus 1, MT4, clinical isolate (pre) prior to long-term ZDV monotherapy, row HIV-1 (G-68), read-out: Untreated EC50)?
Answer: 0.6 µM

Question: What about the EC50 ([5]; Human immunodeficiency virus 1, MT4, clinical isolate (pre) prior to long-term ZDV monotherapy, row HIV-1 (R-102), read-out: Untreated EC50) of the same molecule?
Answer: 0.6 µM

Question: And the EC50 ([5]; Human immunodeficiency virus 1, MT4, clinical isolate (pre) prior to long-term ZDV monotherapy, row HIV-1 (X-78), read-out: Untreated EC50)?
Answer: 0.6 µM

Question: What about the EC50 ([5]; Human immunodeficiency virus 1, MT4, clinical isolate HIV-1 (A-161), long-term ZDV monotherapy, read-out: Selected Varient EC50) of the same molecule?
Answer: 8.6 µM

Question: And the EC50 ([5]; Human immunodeficiency virus 1, MT4, clinical isolate HIV-1 (C-246), long-term ZDV monotherapy, read-out: Selected Varient EC50)?
Answer: 10.3 µM

Question: And the EC50 ([5]; Human immunodeficiency virus 1, MT4, clinical isolate HIV-1 (G-68), long-term ZDV monotherapy, read-out: Selected Varient EC50)?
Answer: 0.5 µM

Question: And the EC50 ([5]; Human immunodeficiency virus 1, MT4, clinical isolate HIV-1 (R-102), long-term ZDV monotherapy, read-out: Selected Varient EC50)?
Answer: 0.3 µM

Question: And the EC50 ([5]; Human immunodeficiency virus 1, MT4, clinical isolate HIV-1 (X-78), long-term ZDV monotherapy, read-out: Selected Varient EC50)?
Answer: 0.5 µM

Question: What about the EC50 [6, 7] of the same molecule?
Answer: 0.4 µM

Question: And the EC50 ([6]; clinical isolate (pre) prior to long-term ZDV monotherapy, row HIV-1 (A018C), read-out: Untreated EC50)?
Answer: 1 µM

Question: And the EC50 ([6]; clinical isolate (pre) prior to long-term ZDV monotherapy, row HIV-1 (A036DD), read-out: Untreated EC50)?
Answer: 0.6 µM

Question: And the EC50 ([6]; clinical isolate (pre) prior to long-term ZDV monotherapy, row HIV-1 (P022C), read-out: Untreated EC50)?
Answer: 0.4 µM

Question: What about the EC50 ([6]; clinical isolate (pre) prior to long-term ZDV monotherapy, row HIV-1 (P026B), read-out: Untreated EC50) of the same molecule?
Answer: 0.4 µM

Question: And the EC50 [6, 8]?
Answer: 89 µM

Question: What about the EC50 ([6]; clinical isolate HIV-1 (A018C:D67N/K70R/T215Y/K219Q), read-out: Selected Varient EC50) of the same molecule?
Answer: 50 µM

Question: And the EC50 ([6]; clinical isolate HIV-1 (A036DD:M41L/D67N/K70R/T215Y), read-out: Selected Varient EC50)?
Answer: 56 µM

Question: And the EC50 ([6]; clinical isolate HIV-1 (P022C:M41L?/D67N/K70R/T215F/K219Q), read-out: Selected Varient EC50)?
Answer: 40 µM

Question: And the EC50 ([6]; clinical isolate HIV-1 (P026B:M41L?/D67N/K70R/T215Y), read-out: Selected Varient EC50)?
Answer: 100 µM

Question: What about the anti-HIV activity (HIV) of the same molecule?
Answer: significant anti-HIV activity
